Patent publication US8535740B2, “Compositions from Nigella sativa” (priority 2002, dated 2013)
Values after ≈ are worked out from the molar mass of the structure shown. Marks after values point to notes of the source that are not given here.

Key:
Assay type in all cases: cell-based, murine
C2C12 myocytes = assay: Lipolysis (glycerol / free fatty acid release) in C2C12 myocytes; conditions: test materials 5 or 2.5 μg/mL (FIG. 10)
Description: Cell culture and treatment-Culture and treatment of 3T3-L1 adipocytes and C2C12 myocytes was as described in Example 5. Concentrations of the forskolin positive control and test materials are listed in FIG. 9 for adipocytes and FIG. 10 for myocytes. Glycerol assay-Free fatty acid release from 3T3-L1 adipocytes or C2C12 myocytes was quantified by measuring glycerol secretion into the medium. Glycerol was measured spectrophotometrically using the Free Glycerol Determination Kit ([…], Sigma) and an EL 312e Microplate BIO-KINETICS spectrophotometer (BioTek, Winooski, Vt.). Data analysis-Glycerol release from adipocytes and myocytes was expressed, respectively, as the percent increase in free fatty acid secretion (FIG. 9) and relative glycerol content (glycerol index FIG. 10) ±95% confidence intervals of eight observations for one of three representative experiments.

[1] = test system: iNOS-mediated NO biosynthesis in C2C12 myocytes; assay: LTI cytokine-stimulated NO biosynthesis in C2C12 myocytes; conditions: Mus musculus, value computed on the basis of TQ content, LPS/TNFα/IFγ stimulation 20 hours, (95% confidence interval), read-out: Median Inhibitory Concentration for iNOS-mediated NO biosynthesis, C2C12 Myocytes
Description: Mouse C2C12 myoblasts (American Type Culture Collection, Manassas, Va.) were maintained in Dulbecco's modified Eagle's medium (DMEM) supplemented with 10% fetal calf serum (FCS), 50 units/ml penicillin and 50 μg/ml streptomycin. As cells reached confluence, the medium was switched to the differentiation medium containing DMEM and 2% horse serum. Medium was changed every other day. […] At the end of the treatment period, media were sampled for determination of NO. […] Determination of nitrite in waters by microplate fluorescence spectroscopy and HPLC with fluorescence detection. Anal Chem. Aug. 1 1999; 71(15):3003-3007). In a separate, black-walled, 96-well, microtiter plate, a 7 μL aliquot of a 4.8×10^-4 mol NBDM/L solution was added to 200 μL of the supernatant media followed by the addition of 15 μL of concentrated phosphoric acid. After a reaction time of 30 minutes at ambient temperature, the fluorescence was read with 485 nm excitation filter and a 530 nm emission filter in a Packard Fluorocount spectrofluorometer (Model #BF10000, Meridan, Conn.). […] Quantitative analysis of dose-effect relationships: the combined effects of multiple drugs or enzyme inhibitors.

[2] = test system: adiponectin secretion in 3T3-L1 adipocytes; assay: Adiponectin secretion in t10-CLA-stimulated 3T3-L1 adipocytes
Description: Treatment—Test materials were added four hours prior to the addition of t10-CLA at a concentration of 50 μM. Following overnight incubation, the supernatant media were sampled for determination of IL-6 and adiponectin. Adiponectin assay—The adiponectin secreted into the medium was quantified using the Mouse Adiponectin Quantikine® Immunoassay kit with no modifications (R&D Systems, Minneapolis, Minn.). […] Statistical Calculations and Interpretation—Test materials and were assayed in duplicate, while solvent controls were replicated eight times. IL-6 and adiponectin secretion were represented relative to the IL-6 and adiponectin secretion of the t10-CLA only controls as the IL-6 and adiponectin index and differences among the means were analyzed by the student's t-test assuming a five percent probability of a type I error (Excel; Microsoft, Redmond, Wash.).

[3] = test system: iNOS-mediated NO biosynthesis in 3T3-L1 adipocytes; assay: LTI cytokine-stimulated NO biosynthesis in 3T3-L1 adipocytes; conditions: Mus musculus, value computed on the basis of TQ content, LPS/TNFα/IFγ stimulation 20 hours, (95% confidence interval), read-out: Median Inhibitory Concentration for iNOS-mediated NO biosynthesis, 3T3-L Adipocytes
Description: Cell culture and treatment-The murine fibroblast cell line 3T3-L1 was purchased from the American Type Culture Collection (Manassas, Va.) and sub-cultured according to instructions from the supplier. Prior to experiments, cells were cultured in DMEM containing 10% FBS-HI added 50 units penicillin/ml and 50 μg streptomycin/ml, and maintained in log phase prior to experimental setup. Cells were grown in a 5% CO2 humidified incubator at 37° C. Components of the pre-confluent medium included: (1) 10% FBS/DMEM (Fetal Bovine Serum/Dulbecco's Modified Eagle's Medium) containing 4.5 g glucose/L; (2) 50 U/ml penicillin; and (3) 50 μg/ml streptomycin. Growth medium was made by adding 50 ml of heat inactivated FBS and 5 ml of penicillin/streptomycin to 500 ml DMEM. This medium was stored at 4° C. Before use, the medium was warmed to 37° C. in a water bath. […] cells were seeded at an initial density of 6×10^4 cells/cm^2 in 24-well plates. […] Determination of nitrite in waters by microplate fluorescence spectroscopy and HPLC with fluorescence detection. […] After a reaction time of 30 minutes at ambient temperature, the fluorescence was read with 485 nm excitation filter and a 530 nm emission filter in a Packard Fluorocount spectrofluorometer (Model #BF10000, Meridan, Conn.). […] Quantitative analysis of dose-effect relationships: the combined effects of multiple drugs or enzyme inhibitors.

IC50 [1]: 1.9 µg/mL (≈ 11.6 µM)
SMILES: CC1=CC(=O)C(C(C)C)=CC1=O [Thymoquinone (Sigma), thymoquinone]
free fatty acid release in myocytes (C2C12 myocytes): induced free fatty acid release
effect on t10-CLA-stimulated decrease of adiponectin secretion ([2]; concentrations of Table 8): attenuated t10-CLA-stimulated decrease of adiponectin secretion
Adiponectin Index ([2]; relative to t10-CLA only control (100), 50 μM t10-CLA, overnight, each material at its tabulated concentration): 128*
IC50 [3]: 1.9 µg/mL (≈ 11.6 µM)
